Blank lines part the entries; values can stand above or below the compound they belong to. Calls of active or inactive are those of the source. No cut-off for these calls is given here. Where a SMILES comes first, the peptide text is derived from it.
How the values were obtained:
A549 [1] = test: Cytotoxicity against human A549 cells assessed as cell viability upto 100 uM by CCK8 assay; format: toxicity, cell-based; conditions: a549, 100 µM
A549 [2] = test: Inhibition of cell invasion in human A549 cells at 100 uM; format: functional, cell-based
A549 [3] = test: Upregulation of TIMP-2 level in human A549 cells at 100 uM by Western blot analysis; format: functional, cell-based
A549 [4] = test: Upregulation of TIMP-1 level in human A549 cells at 100 uM by Western blot analysis; format: functional, cell-based
A549 [5] = test: Upregulation of TIMP-1 mRNA level in human A549 cells at 100 uM by qPCR analysis; format: functional, cell-based
A549 [6] = test: Downregulation of MMP-2 level in human A549 cells at 100 uM by Western blot analysis; format: functional, cell-based
A549 [7] = test: Upregulation of TIMP-2 mRNA level in human A549 cells at 100 uM by qPCR analysis; format: functional, cell-based
A549 [8] = test: Inhibition of cell invasion in human A549 cells at 25 to 100 uM; format: functional, cell-based; conditions: dose 25-100 µM
A549 [9] = test: Inhibition of cell invasion in human A549 cells by microscopy; format: functional, cell-based; conditions: dose 25-100 µM
[10] = Stability in human serum assessed as compound remaining measured after 24 hrs by HPLC analysis; format: ADME, cell-free; conditions: read-out: Stability
A549 [11] = test: Inhibition of cell invasion in human A549 cells; format: functional, cell-based; conditions: dose 25-100 µM
[12] = Stability in human serum assessed as half life by HPLC analysis; format: ADME, cell-free
A549 [13] = test: Inhibition of cell invasion in human A549 cells at 100 uM by microscopy; format: functional, cell-based
A549 [14] = test: Downregulation of MMP-9 level in human A549 cells at 100 uM by Western blot analysis; format: functional, cell-based

Compound: H-DSFGLSAL-OH
Activity (A549 [1]): Non-Toxic
inhibition (A549 [2]): inactive

Compound: H-DAFGLSWL-OH
Activity (A549 [1]): Non-Toxic
inhibition (A549 [2]): inactive

Compound: H-DSFGLAWL-OH
Activity (A549 [1]): Non-Toxic

Compound: H-DSFVLSWL-OH
Activity (A549 [3]): inactive
Activity (A549 [1]): Non-Toxic
Activity (A549 [4]): Active
Activity (A549 [5]): Active
Activity (A549 [6]): Active
Activity (A549 [7]): inactive
inhibition (A549 [8]): Active

Compound: H-DSFDLSWL-OH
Activity (A549 [1]): Non-Toxic

Compound: CC(C)C[C@@H]1NC(=O)[C@H](CCCCN)NC(=O)[C@H](Cc2ccccc2)NC(=O)[C@H](CO)NC(=O)[C@H](CC(=O)O)NC(=O)[C@H](CC(C)C)NC(=O)[C@H](Cc2c[nH]c3ccccc23)NC(=O)[C@H](CO)NC1=O (cyclo(DSFKLSWL))
Activity (A549 [1]): Non-Toxic

Compound: H-DSAGLSWL-OH
Activity (A549 [1]): Non-Toxic

Compound: H-ASFGLSWL-OH
Activity (A549 [1]): Non-Toxic
inhibition (A549 [2]): inactive

remaining at 24 h [10]: > 80%
half-life [12]: > 24 h
Compound: CC(C)C[C@@H]1NC(=O)[C@H](C)NC(=O)[C@H](Cc2ccccc2)NC(=O)[C@H](CO)NC(=O)[C@H](CC(=O)O)NC(=O)[C@H](CC(C)C)NC(=O)[C@H](Cc2c[nH]c3ccccc23)NC(=O)[C@H](CO)NC1=O (cyclo(ALSWLDSF))
Activity (A549 [3]): inactive
Activity (A549 [1]): Non-Toxic
Activity (A549 [4]): Active
Activity (A549 [5]): Active
inhibition (A549 [9]): Dose-Dependent Effect
Activity (A549 [7]): Active
inhibition (A549 [11]): Dose-Dependent Effect

Compound: H-DSFKLSWL-OH
Activity (A549 [3]): inactive
Activity (A549 [1]): Non-Toxic
Activity (A549 [4]): Active
Activity (A549 [5]): Active
Activity (A549 [6]): Active
Activity (A549 [7]): inactive
inhibition (A549 [11]): Dose-Dependent Effect

Compound: Ac-DSFGLSWL-NH2
Activity (A549 [1]): Non-Toxic
inhibition (A549 [2]): inactive

Compound: H-DSFGASWL-OH
Activity (A549 [1]): Non-Toxic
inhibition (A549 [2]): inactive

Compound: CC(C)C[C@@H]1NC(=O)CNC(=O)[C@H](Cc2ccccc2)NC(=O)[C@H](CO)NC(=O)[C@H](CC(=O)O)NC(=O)[C@H](CC(C)C)NC(=O)[C@H](Cc2c[nH]c3ccccc23)NC(=O)[C@H](CO)NC1=O (cyclo(DSFGLSWL))
Activity (A549 [1]): Non-Toxic

Compound: H-DSFGLSWL-OH
Activity (A549 [1]): Non-Toxic

remaining at 24 h [10]: ~23%
Compound: H-DSFALSWL-OH
Activity (A549 [3]): inactive
inhibition (A549 [13]): Active
Activity (A549 [1]): Non-Toxic
Activity (A549 [4]): Active
Activity (A549 [5]): Active
Activity (A549 [7]): Active
inhibition (A549 [11]): Dose-Dependent Effect
inhibition (A549 [2]): Active
Activity (A549 [14]): Active

Compound: H-DSFLLSWL-OH
Activity (A549 [1]): Non-Toxic
inhibition (A549 [8]): inactive

Compound: H-DSFGLSWA-OH
Activity (A549 [1]): Non-Toxic
inhibition (A549 [2]): inactive

Compound: H-DSFRLSWL-OH
Activity (A549 [1]): Non-Toxic

From ChEMBL document CHEMBL5579800, “Further structural optimization and SAR study of sungsanpin derivatives as cell-invasion inhibitors” (Bioorg Med Chem Lett, 2024)
